Source: US9980943B2, “Methods of treating muscular dystrophy” (BOARD OF REGENTS OF THE NEVADA SYSTEM OF HIGHER EDUCATION, …, priority 2013, dated 2018)

What was measured:
Format in all cases: cell-based, mouse
[1] = system: β-galactosidase in CMV-LacZ C2C12 myotubes; experiment: CMV-LacZ secondary screen in C2C12 myotubes (β-Gal stabilizing assay); conditions: C2C12 CMV-LacZ myotubes, fold relative to DMSO
In short: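 β-gal stabilization was measured in C2C12 myoblasts or myotubes stably transfected with a CMV-driven LacZ construct, using the FDG β-gal assay. Compounds were tested in dose-response at 0.5, 1, 5, 10, 20 and 40 μM, with two replicates per point.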

[2] = system: α7 integrin (LacZ reporter in α7βgal+/− myoblasts); experiment: Myoblast α7+/LacZ integrin FDG assay (Burkin assay in myoblasts, 96-well); conditions: α7+/LacZ myoblasts, 96-well
[3] = system: α7 integrin (LacZ reporter in α7+/LacZ myotubes); experiment: Myotube α7 integrin FDG assay (Burkin assay in myotubes, 96-well); conditions: myotubes
[4] = system: β-galactosidase in CMV-LacZ C2C12 myoblasts; experiment: CMV-LacZ secondary screen in C2C12 myoblasts (β-Gal stabilizing assay); conditions: CMV-LacZ C2C12 myoblasts
Source text: In order to determine compounds that acted to stabilize β-gal in myogenic cells, a CMV-LacZ C2C12 cell line was used in a secondary screen. The EGFP gene from the pEGFP (Clontech) vector was replaced by LACZ PCR product with digests of the vector/PCR product performed using EcoRI (NEB) and NotI (NEB) and ligated using T4 DNA Ligase (NEB) following standard procedures to produce the CMV-LACZ vector. The LACZ gene was generated by PCR from the pBK-RSV (Stratagene) vector using primers LACZ EcoRI F- and LACZ NotI R-. The CMV-LACZ vector was then digested with AfIII (NEB) to linearize the construct, which was then transfected in C2C12 myoblasts using Lipofectamine 2000 (Invitrogen) following the manufacturer's instructions. […] Clonal lines were selected and screened for βgal levels using the myoblast FDG assay.
The assays were used the original 96-well format and new dose-response curves for myoblasts (N=3-6 replicates for each data point), myotubes (N=3-6 replicates for data point), and CMV-LacZ secondary assay (N=2 replicates for each data point) using concentrations of 0.5 μM, 1 μM, 5 μM, 10 μM, 20 μM, and 40 μM (Tables 9-16).

| SMILES | CMV-LACZ in Myotubes, signal relative to DMSO ([1]; 0.5 uM) | CMV-LACZ in Myotubes, signal relative to DMSO ([1]; 1 uM) | CMV-LACZ in Myotubes, signal relative to DMSO ([1]; 5 uM) | CMV-LACZ in Myotubes, signal relative to DMSO ([1]; 10 uM) | CMV-LACZ in Myotubes, signal relative to DMSO ([1]; 20 uM) | CMV-LACZ in Myotubes, signal relative to DMSO ([1]; 40 uM) | Burkin Assay in Myoblasts, signal relative to DMSO ([2]; 0.5 uM) | Burkin Assay in Myoblasts, signal relative to DMSO ([2]; 1 uM) | Burkin Assay in Myoblasts, signal relative to DMSO ([2]; 5 uM) | Burkin Assay in Myoblasts, signal relative to DMSO ([2]; 10 uM) | Burkin Assay in Myoblasts, signal relative to DMSO ([2]; 20 uM) | Burkin Assay in Myoblasts, signal relative to DMSO ([2]; 40 uM) | Burkin Assay in Myotubes, α7 integrin LacZ reporter signal relative to DMSO ([3]; 0.5 uM) | Burkin Assay in Myotubes, α7 integrin LacZ reporter signal relative to DMSO ([3]; 1 uM) | Burkin Assay in Myotubes, α7 integrin LacZ reporter signal relative to DMSO ([3]; 5 uM) | Burkin Assay in Myotubes, α7 integrin LacZ reporter signal relative to DMSO ([3]; 10 uM) | Burkin Assay in Myotubes, α7 integrin LacZ reporter signal relative to DMSO ([3]; 20 uM) | Burkin Assay in Myotubes, α7 integrin LacZ reporter signal relative to DMSO ([3]; 40 uM) | CMV-LACZ in Myoblasts (β-galactosidase activity relative to DMSO) ([4]; 0.5 uM) | CMV-LACZ in Myoblasts (β-galactosidase activity relative to DMSO) ([4]; 1 uM) | also measured |
| --- | --- | --- | --- | --- | --- | --- | --- | --- | --- | --- | --- | --- | --- | --- | --- | --- | --- | --- | --- | --- | --- |
| CC(C)Oc1cccc(C(=O)Nc2ccc(CN3CCOCC3)cc2)c1 [MLS000062431-01] | 0.9133 | 0.9743 | 0.9004 | 0.9690 | 0.8812 | 1.2047 | 0.9542 | 0.9582 | 1.016 | 1.209 | 1.789 | 0.9038 | 0.9571 | 0.8415 | 1.178 | 1.1989 | 0.7643 | 0.8841 | 0.9557 | 1.1631 | CMV-LACZ in Myoblasts (β-galactosidase activity relative to DMSO) ([4]; 5 uM): 0.9848; CMV-LACZ in Myoblasts (β-galactosidase activity relative to DMSO) ([4]; 10 uM): 1.1632; CMV-LACZ in Myoblasts (β-galactosidase activity relative to DMSO) ([4]; 20 uM): 1.0467; CMV-LACZ in Myoblasts (β-galactosidase activity relative to DMSO) ([4]; 40 uM): 1.0993 |
| COc1ccc(C(=O)Cn2nnc(-c3ccccc3NC(=O)c3ccco3)n2)cc1 [MLS000072290-01] | 0.9362 | 1.1495 | 1.3265 | 1.1459 | 1.3484 | 1.0653 | 1.405 | 1.196 | 0.7334 | 0.6517 | 0.3984 | 0.2238 | 1.109 | 1.121 | 0.9096 | 0.8405 | 0.475 | 0.1784 | 1.0579 | 0.9000 | CMV-LACZ in Myoblasts (β-galactosidase activity relative to DMSO) ([4]; 5 uM): 1.4390; CMV-LACZ in Myoblasts (β-galactosidase activity relative to DMSO) ([4]; 10 uM): 1.3303; CMV-LACZ in Myoblasts (β-galactosidase activity relative to DMSO) ([4]; 20 uM): 0.3911; CMV-LACZ in Myoblasts (β-galactosidase activity relative to DMSO) ([4]; 40 uM): 0.2915 |
| CCC(C)n1[nH]c(=O)cc1N (stereo not drawn) [MLS000073150-01] | 1.0752 | 1.0848 | 1.2058 | 1.1088 | 0.9750 | 1.0390 | 1.262 | 1.0875 | 0.9262 | 0.909 | 1.139 | 1.068 | 1.111 | 0.9205 | 0.9467 | 0.9476 | 0.8369 | 0.856 | 1.0753 | 1.8970 | CMV-LACZ in Myoblasts (β-galactosidase activity relative to DMSO) ([4]; 5 uM): 0.8193; CMV-LACZ in Myoblasts (β-galactosidase activity relative to DMSO) ([4]; 10 uM): 0.9954; CMV-LACZ in Myoblasts (β-galactosidase activity relative to DMSO) ([4]; 20 uM): 0.9491; CMV-LACZ in Myoblasts (β-galactosidase activity relative to DMSO) ([4]; 40 uM): 0.9000 |
| CC(=O)Nc1ccc(-n2c(C)nc(=O)c(-c3ccccc3)c2C)cc1 [MLS000078709-01] | 1.0133 | 0.9257 | 0.9348 | 0.8743 | 1.0853 | 1.7737 | 1.063 | 0.996 | 0.8157 | 0.8052 | 0.5171 | 0.2616 | 0.8374 | 0.8236 | 0.9535 | 0.9899 | 0.6311 | 0.4894 | 0.8167 | 0.7008 | CMV-LACZ in Myoblasts (β-galactosidase activity relative to DMSO) ([4]; 5 uM): 0.9270; CMV-LACZ in Myoblasts (β-galactosidase activity relative to DMSO) ([4]; 10 uM): 1.0163; CMV-LACZ in Myoblasts (β-galactosidase activity relative to DMSO) ([4]; 20 uM): 0.6919; CMV-LACZ in Myoblasts (β-galactosidase activity relative to DMSO) ([4]; 40 uM): 0.4830 |
| N#CC1=C2SCN(c3ccccc3)CN2C(=O)CC1c1cccs1 (stereo not drawn) [MLS000080654-01] | 1.1229 | 1.0086 | 1.0335 | 1.0399 | 1.1871 | 1.4259 | 0.9788 | 0.923 | 0.9235 | 0.9429 | 1.112 | 0.9166 | 1.067 | 1.092 | 0.9044 | 0.9707 | 0.7422 | 0.6217 | 1.1851 | 1.4314 | CMV-LACZ in Myoblasts (β-galactosidase activity relative to DMSO) ([4]; 5 uM): 1.0703; CMV-LACZ in Myoblasts (β-galactosidase activity relative to DMSO) ([4]; 10 uM): 0.9345; CMV-LACZ in Myoblasts (β-galactosidase activity relative to DMSO) ([4]; 20 uM): 1.0174; CMV-LACZ in Myoblasts (β-galactosidase activity relative to DMSO) ([4]; 40 uM): 0.8815 |
